One series relates to MT-4 cells. Briefly: in vitro. The conditions noted are these: 5 days, MTT, mean ± S.E.M (n = 3); for MNTC (maximum nontoxic concentration): concentration with cell viability above 80% (CC20). The protocol: (§1) A cytotoxicity test was conducted to evaluate the safety of the plant extracts by measuring cell death caused by the plant extracts. The assay was conducted using an MTT colorimetric assay. The MTT assay was based on the reduction of the yellow-colored tetrazolium salt MTT 3-(4,5-dimethylthiazol-2-yl)-2,5-diphenyltetrazolium bromide) by NAD(P)H-dependent cellular oxidoreductase enzymes to an insoluble dark-blue colored formazan that can be measured spectrophotometrically. Formazan production indicates the number of viable cells; therefore, an increase or decrease in cellular viability results in a change in the amount of formazan formed, which indicates the degree of cellular cytotoxicity (CC50) caused by the plant extract. MTT (3-(4,5-dimethylthiazol-2-yl)-2,5-diphenyl tetrazolium bromide) was dissolved in PBS to obtain a final concentration of 5 mg/ml and filtered to sterilize and remove insoluble residue. The assay was carried out in 96-well, flat-bottomed microtiter plates. To each well, 200 μl of MT-4 cells (1 × 10^5 cells) in growth media was added. The plates were preincubated for 24 h at 37 °C to allow stabilization. Then, 50 μL of the test compounds (at a concentration of 4 mg/ml) were added to the first column of the well. With a multichannel pipette, 50 μL was transferred (in triplicate) from the wells labeled 1 to wells labeled 2, and such transfers were continued (serial dilution), moving from left to right, changing tips prior to mixing contents of the next column of wells. Finally, 50 μL was discarded from the wells in column 12. […] Each dilution was tested in triplicates. The negative control (NC) wells contained 50 μl of MT-4 cells in 0.5% DMSO [52]. […] A 96-well microtiter plate containing the test compounds and positive and negative controls was incubated at 37 °C in a humidified atmosphere of 5% CO2 for 5 days. After incubation, 20 μl of MTT reagent (5 mg/ml MTT in phosphate-buffered saline) was added to each test well and control well. The plate was further incubated at 37 °C in a CO2 incubator for 4 hours. After 4 hours of incubation, 100 μl of DMSO was added to dissolve the dark-blue formazan crystals from surviving cells. After the formazan crystals were dissolved completely, the resulting optical density (OD) readings were measured relative to the controls on an ELISA plate reader at 570 nm with a reference wavelength of 620 nm. For each extract and pure compound tested, 3 triplicate determinations were performed. […] The concentration that determined cell viability above 80% (CC20) was chosen as the maximum non-toxic concentration (MNTC).

In the next series the test system is HIV-1IIIB virus. As to the kind of experiment: Anti-HIV activity: inhibition of HIV-1-induced cytopathic effect in MT-4 cells, MTT colorimetric assay. It counts as cell-based. Conditions: for SI (selective index): ratio of CC50 to EC50, MT-4 cells; for Emax: read-out: EmaxAV (maximum antiviral effect %, inhibition of virus-induced CPE). The protocol:
The effects of the test compounds in preventing cytopathic effects that occur because of HIV-1 replication were evaluated by MTT colorimetric assay. MT-4 cells suspended at 1 X 10^8 cells/ml were infected with 640 μL of HIV-1IIIB virus at 1.26 X10^8 TCID50/ml. After infection, 200 μl HIV-infected MT-4 cells (1 X10^5 cells/well) in growth media were added to each well. The plates were preincubated for 24 h at 37 °C to allow stabilization. Then, 50 μL of the test compounds (at a concentration of 4 mg/ml) were added to the first column of the well. With a multichannel pipette, 50 μL was transferred (in triplicate) from the wells labeled 1 to wells labeled 2. Such transfers were continued (serial dilution), moving from left to right, changing tips prior to mixing contents of the next column of wells. Finally, 50 μL was discarded from the wells in column 12. Different concentrations ([…]) of test compounds were prepared through serial dilution. Each dilution was tested in triplicates. The microtiter plates were incubated at 37 °C in a 5% CO2 incubator for 5 days. […] After 5 days of incubation, cell viability was determined by the MTT assay described. All compounds were assayed in triplicate.

Another series can be described thus: in vitro. Conditions: human, MT-4 cells. How it is done:
as §1

Series [1] addresses HIV-1 RT-associated RNase H function. On the set-up: method as in ref 62 (Esposito et al). Conditions: ref 62 (Esposito et al); cited from earlier work.
For a further series, the system named is HIV. On the set-up: method as in ref 61 (Chaniad et al). Conditions: ref 61 (Chaniad et al); read-out: IC50 against HIV; cited from earlier work.
Setting [2] is: HIV-1IIIB-infected MT-4 cells, 5 days, MTT, mean ± S.E.M (n = 3).
The mark [3] stands for this setting: Human immunodeficiency virus 1, MT4, 120 h, read-out: IC50 (50% antiviral effect concentration), HIV-1IIIB-infected MT-4 cells, 5 days, MTT, mean ± S.E.M (n = 3).
Where [4] appears, read: Human immunodeficiency virus 1, MT4, 120 h, HIV-1IIIB-infected MT-4 cells, 5 days, MTT, mean ± S.E.M (n = 3).
[5] abbreviates: CC50 (50% cytotoxic concentration), 5 days, MTT, mean ± S.E.M (n = 3).
The mark [6] stands for this setting: Human immunodeficiency virus 1, MT4, 120 h, read-out: IC50 (50% antiviral effect concentration).

≈ marks a conversion by molar mass, not a printed value. Like-named read-outs stand apart in the source and are kept apart here.

On to `Nc1nc(NC2CC2)c2ncn([C@H]3C=C[C@@H](CO)C3)c2n1` [ABC, Abacavir, reference compound], for which, in the series with MT-4 cells, the “MNTC (maximum nontoxic concentration)” value worked out at 0.18 ± 0.03 µg/mL, the “CC50 (50% cytotoxic concentration)” value was found to be 0.26 ± 0.00 µg/mL (≈ 0.908 µM) and the “EmaxC (maximum cytotoxic effect %)” value came to 17.83 ± 0.57%. For the same compound, the “EmaxAV (maximum antiviral effect %, inhibition of virus-induced CPE)” value in the series on HIV-1IIIB virus (setting [2]) is on record as 58.67 ± 0.43%. Also, the IC50 in the series on HIV-1IIIB virus (setting [3]) came out at 0.05 ± 0.031 µg/mL. Besides, the “SI (selective index)” value in the series with HIV-1IIIB virus is on record as 5.0.

On to `Cc1cn([C@H]2C[C@H](N=[N+]=[N-])[C@@H](CO)O2)c(=O)[nH]c1=O` [AZT, Zidovudine, reference compound], for which the “EmaxAV (maximum antiviral effect %, inhibition of virus-induced CPE)” value in the series with HIV-1IIIB virus (setting [2]) stood at 83.5 ± 0.57%.

As a reminder, the CC50 is the concentration at which the toxic effect on the cells reaches its halfway point. Lower therefore signals harm at low concentration. For `COc1ccccc1COC(=O)c1ccccc1` [Compound 1, 2-methoxy benzyl benzoate], the “EmaxC (maximum cytotoxic effect %)” value with MT-4 cells came out at 39.1 ± 2.22%. For the same compound, in the series “in vitro”, the midpoint of cytotoxicity, the CC50 at 5 days, lay at 0.001 µg/mL (≈ 0.00413 µM). Moreover, in the series on HIV-1IIIB virus (setting [4]), the Emax turned out to be 53.2 ± 3.35%. Further, in the series on HIV-1IIIB virus (setting [3]), the IC50 was found to be 0.25 ± 0.02 µg/mL. For the same compound, the “SI (selective index)” value in the series on HIV-1IIIB virus came to 0.0073.

With `CC[C@H](/C=C/[C@@H](C)[C@H]1CC[C@H]2[C@@H]3CC=C4C[C@@H](O)CC[C@]4(C)[C@H]3CC[C@]12C)C(C)C` [Compound 7, stigmasterol], in the series on MT-4 cells, the “MNTC (maximum nontoxic concentration)” value was 4.70 ± 3.43 µg/mL and the “EmaxC (maximum cytotoxic effect %)” value came out at 43.71 ± 2.02%. Also, in “in vitro” (setting [5]), it took 12.4 ± 10.9 µg/mL (≈ 30 µM) to reach half-maximal cytotoxicity (CC50 at 5 days). In the series with HIV-1IIIB virus (Human immunodeficiency virus 1, MT4, 120 h), the Emax came to 76.8 ± 23.2%. Besides, the IC50 in the series with HIV-1IIIB virus (setting [6]) amounted to 0.14 ± 0.04 µg/mL. For the same compound, the “SI (selective index)” value in the series with HIV-1IIIB virus is 86.5.

Consider `C=C(C)[C@@H]1CC[C@]2(C)CC[C@]3(C)[C@H](CC[C@@H]4[C@@]5(C)CC[C@H](O)C(C)(C)[C@@H]5CC[C@]43C)[C@@H]12` [Compound 5, lupeol], for which, in the series on MT-4 cells, the “MNTC (maximum nontoxic concentration)” value is 75.75 ± 0.74 µg/mL and the “EmaxC (maximum cytotoxic effect %)” value is 70.28 ± 0.75%. Further, in the series “in vitro” (setting [5]), the 50% cytotoxic concentration (CC50) at 5 days amounted to 141.8 ± 0.7 µg/mL (≈ 332 µM). In the series with HIV-1IIIB virus (setting [4]), the Emax is 77.01 ± 0.38%. Also, the IC50 in the series with HIV-1IIIB virus (setting [3]) turned out to be 0.047 ± 0.02 µg/mL. The “SI (selective index)” value in the series on HIV-1IIIB virus amounted to 3048.2. Besides, the “IC50, HIV-1 RT-associated RNase H function” value in series [1] is 11600 nM.

On to `C[C@H](Cn1cnc2c(N)ncnc21)OCP(=O)(O)O` [TDF, Tenofovir, reference compound], for which, in the series with MT-4 cells, the “MNTC (maximum nontoxic concentration)” value is 4.92 ± 0.71 µg/mL, the “CC50 (50% cytotoxic concentration)” value worked out at 6.73 ± 0.24 µg/mL (≈ 23.4 µM) and the “EmaxC (maximum cytotoxic effect %)” value was found to be 13.17 ± 0.43%. Moreover, in the series with HIV-1IIIB virus (setting [2]), the “EmaxAV (maximum antiviral effect %, inhibition of virus-induced CPE)” value is on record as 80.55 ± 0.46%. Also, the IC50 in the series on HIV-1IIIB virus (setting [6]) stood at 0.04 ± 0.01 µg/mL.

Turning to `C=C(C)[C@@H]1CC[C@]2(C)CC[C@]3(C)[C@H](CC[C@@H]4[C@@]5(C)CCC(=O)C(C)(C)[C@@H]5CC[C@]43C)[C@@H]12` [Compound 2, lupenone], in the series on MT-4 cells, the “MNTC (maximum nontoxic concentration)” value turned out to be 14.17 ± 0.94 µg/mL, the “CC50 (50% cytotoxic concentration)” value was 28.83 ± 0.54 µg/mL (≈ 67.9 µM) and the “EmaxC (maximum cytotoxic effect %)” value is given as 38.53 ± 0.69%. In addition, in the series “in vitro” (setting [5]), it took 32.5 ± 0.7 µg/mL (≈ 76.4 µM) to reach half-maximal cytotoxicity (CC50 at 5 days). The Emax in the series with HIV-1IIIB virus (setting [4]) stood at 64.74 ± 0.52%. Also, the IC50 in the series on HIV-1IIIB virus (setting [3]) is 0.002 ± 0.001 µg/mL. In addition, in the series on HIV-1IIIB virus (Human immunodeficiency virus 1, MT4, as stated in abstract/conclusions, read-out: anti-HIV-1 inhibition IC50), the IC50 came to 4.7 nM. Also, the “SI (selective index)” value in the series with HIV-1IIIB virus is 14,084.0.

With `C=C(C)[C@@H]1CC[C@]2(CO)CC[C@]3(C)[C@H](CC[C@@H]4[C@@]5(C)CC[C@H](O)C(C)(C)[C@@H]5CC[C@]43C)[C@@H]12` [Compound 4, betulin], the “MNTC (maximum nontoxic concentration)” value in the series on MT-4 cells stood at 16.54 ± 0.35 µg/mL. Moreover, the “EmaxC (maximum cytotoxic effect %)” value in the series on MT-4 cells is reported as 55.13 ± 0.15%. For the same compound, the CC50 at 5 days in the series “in vitro” (setting [5]) was found to be 31.7 ± 0.55 µg/mL (≈ 71.7 µM). The Emax with HIV-1IIIB virus (setting [4]) was determined as 76%. Further, the IC50 was 0.002 ± 0.04 µg/mL with HIV-1IIIB virus (setting [3]); 4.5 nM in the series on HIV-1IIIB virus (Human immunodeficiency virus 1, MT4, read-out: anti-HIV-1 inhibition IC50); 4.5 µg/mL in the series on HIV-1IIIB virus (Human immunodeficiency virus 1, MT4, as stated in abstract, read-out: anti-HIV-1 inhibition IC50); 17700 ± 600 nM in the series on HIV. The “SI (selective index)” value with HIV-1IIIB virus is 15,551.2.

`Cc1ccnc2c1NC(=O)c1cccnc1N2C1CC1` [NVP, Nevirapine, reference compound]: in the series with MT-4 cells, the “MNTC (maximum nontoxic concentration)” value was determined as 0.57 ± 0.0 µg/mL, the “CC50 (50% cytotoxic concentration)” value was 0.82 ± 0.0 µg/mL (≈ 3.08 µM) and the “EmaxC (maximum cytotoxic effect %)” value was 39.13 ± 0.65%. Moreover, in the series with HIV-1IIIB virus (setting [2]), the “EmaxAV (maximum antiviral effect %, inhibition of virus-induced CPE)” value came to 72.53 ± 0.47%. In the series with HIV-1IIIB virus (setting [3]), the IC50 turned out to be 0.24 ± 0.09 µg/mL. Besides, in the series with HIV-1IIIB virus, the “SI (selective index)” value is 3.5.

Source of the values: publication PMC9202147, “In vitro anti-HIV and cytotoxic effects of pure compounds isolated from Croton macrostachyus Hochst. Ex Delile” (BMC Complementary Medicine and Therapies, 2022).
